Source: PMC4067742, “Direct Observations of Amyloid β Self-Assembly in Live Cells Provide Insights into Differences in the Kinetics of Aβ(1–40) and Aβ(1–42) Aggregation” (Chemistry & Biology, 2014)
Values joined by “and” are separate entries in the source; they are usually repeats but may differ in a detail not shown here. Equal entries are not always repeated.

Legend:
[1] = system: SH-SY5Y cells; assay: Live cell FLIM of intracellular aggregation; assay type: cell-based, human; conditions: 500 nM peptide in culture medium; for lag phase of intracellular aggregation: 0–48 hr, live cell FLIM (Figure 4D)
Source text: Having established that the fluorescence lifetime of HF488 acts as a reporter of amyloid formation of Aβ(1–40) and Aβ(1–42), we set out to investigate how the aggregation state of each of the two peptide isoforms is affected by its cellular uptake and accumulation in acidic organelles in SH-SY5Y cells. Using FLIM, we observed that there are no significant differences (p = 0.95, Table S1) in the fluorescence lifetimes of extracellular and internalized ^HF488Aβ(1–40) during the first 6 hr after application of 500 nM peptide to the culture medium (Figures 4A and 4D), indicating the presence of similar ^HF488Aβ(1–40) species within the cells as those applied to the extracellular environment. […] We then examined the cells treated with the same concentration of ^HF488Aβ(1–40) for 24 and 48 hr (Figures 4C and 4D), washing them prior to imaging to remove any extracellular fluorescence. […] The difference compared with the extracellular starting value, however, is statistically significant first after 48 hr (p = 0.0032, Table S1). […]
All FLIM experiments were carried out using HF488-labeled Aβ peptides, and images were recorded by time-correlated single photon counting (TCSPC) using a confocal microscopy platform built on an Olympus Fluoview FV300 confocal scan unit. […] The excitation beam was reflected onto the sample with a 20/80 broad bandwidth coated beam splitter so that 20% of the excitation light passed on to the sample and 80% of the fluorescence signal was reflected toward the confocal pinhole. The fluorescence light was passed through a 515-nm Semrock long-pass filter (Laser 2000) and passed onto a fast photomultiplier tube (PMC-100, Becker & Hickl). Lifetimes were recorded using TCSPC circuitry (SPC-830, Becker & Hickl). […] The instrument response was measured using reflected light from either a coverslip or a coated mirror. […]

[2] = system: SH-SY5Y human neuroblastoma cells; assay: Confocal microscopy of uptake and intracellular localization; assay type: cell-based; conditions: for intracellular HF488 fluorescence (uptake) after 30 min: 500 nM monomeric peptide in medium, colocalized with endocytosis marker FM 4–64; for intracellular HF488 fluorescence (uptake) after 30 min / intracellular localization after 24 hr: confocal fluorescence; for intracellular localization after 24 hr: 500 nM peptide 24 hr, then 1 hr with 100 nM LysoTracker red; for uptake at 4°C: 1 hr at 4°C (inhibits endocytosis) compared with 37°C, cells washed before confocal imaging
Description: Aβ peptides have been reported to be internalized into a variety of cell types, including neurons ([Burdick et al., 1997; Friedrich et al., 2010; Hu et al., 2009; Kaminski Schierle et al., 2011b; McGuire et al., 2012]). To characterize the uptake and intracellular localization of the peptides under the conditions used in our study, we added aliquots of monomeric ^HF488Aβ(1–40) or ^HF488Aβ(1–42) to cultures of SH-SY5Y human neuroblastoma cells to give a total peptide concentration of 500 nM in the cellular medium. […] The neuronal cells were also incubated for 1 hr at 37°C and at 4°C to compare uptake under conditions that, respectively, permit or inhibit endocytosis.
Human neuroblastoma cells (SH-SY5Y) were grown in 1:1 minimal essential medium (MEM) and nutrient mixture F-12 Ham (Sigma-Aldrich) with sodium bicarbonate, including 15% heat-inactivated fetal bovine serum, 1% MEM non-essential amino acids, 2 mM […], 1% penicillin-streptomycin (10,000 U/ml K1), and 0.1% fungizone (amphotericin B, […] K1) (Life Technologies). Cells were plated 1 day prior to experiments in glass-bottomed culture dishes (MatTek) at a density of 50,000 cells/14-mm dish. All samples were washed once in CO2-independent, serum- and phenol red-free medium (prepared as above but with exclusion of serum and addition of 30 mM HEPES and B12 supplement [Gibco]). All experiments with cells were performed in at least duplicates and repeated at least three times. The Aβ concentration was 500 nM in all experiments.
All uptake and colocalization experiments were carried out with the HF488-labeled Aβ peptides using a Leica SP5 confocal microscope (Leica Microsystems). For colocalization with FM 4–64 (Life Technologies), 5 μg/ml of the dye was added together with the peptide, and images were recorded after 1 hr of incubation. Both dyes were excited by the 488-nm laser line. HF488 emission was collected from 520–580 nm and FM 4–64 emission between 700–800 nm. For colocalization with LysoTracker red (Life Technologies), cells were incubated with HF488-labeled peptide for 24 hr, washed once with serum-free medium, and thereafter incubated for 1 hr with 100 nM LysoTracker red before images were recorded. LysoTracker red was excited using the […] laser line, and emission was collected between 700–800 nm. Sequential acquisition was used in all experiment to avoid bleed-through and cross-excitation. Cellular uptake at 4°C was assessed by keeping the cells in a cold room during incubation. The cells were washed prior to imaging to avoid uptake while observing the cells on the microscope.

Substance | lag phase of intracellular aggregation [1] | endpoint value of intracellular fluorescence lifetime ([1]; endpoint (48h, p = 0.22 Table S2), cells washed once, live cell FLIM) | intracellular HF488 fluorescence (uptake) after 30 min [2] | intracellular localization after 24 hr [2] | cellular uptake after 10 minutes ([2]; 500 nM peptide, 10 minutes, confocal fluorescence with Z-scanning (Figure S3)) | uptake at 4°C ([2]; 500 nM peptide)
^HF488Aβ(1–40): Synthetic 40-residue amyloid β peptide labeled at the N terminus with Hilyte Fluor 488, purchased from Anaspec | appears to exhibit a lag phase | 3.35 ± 0.2 ns and 3.31 ± 0.2 ns | observed readily | colocalize with LysoTracker red | vesicular uptake | did not internalize any detectible quantities
^HF488Aβ(1–42): Synthetic 42-residue amyloid β peptide labeled at the N terminus with Hilyte Fluor 488, purchased from Anaspec | shows no such effect |  | observed readily | colocalize with LysoTracker red |  | did not internalize any detectible quantities
